Reference: PubChem BioAssay (NCI)
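The compound was tested at five concentrations on cells cultured in 96-well plates, with a 48-hour exposure period. TGI is the concentration that stops growth completely.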

How the values were obtained:
Assay in all cases: NCI anticancer screen, dose series, 48 h
COLO 205 colon = system: COLO 205 colon
SK-MEL-28 melanoma = system: SK-MEL-28 melanoma
MDA-MB-231 breast = system: MDA-MB-231 breast
UACC-257 melanoma = system: UACC-257 melanoma
UO-31 renal = system: UO-31 renal
PC-3 prostate = system: PC-3 prostate
786-0 renal = system: 786-0 renal
RPMI-8226 leukemia = system: RPMI-8226 leukemia
A549 NSCLC = system: A549 NSCLC
HCC-2998 colon = system: HCC-2998 colon
HCT-116 colon = system: HCT-116 colon
NCI-H226 lung = system: NCI-H226 lung
SK-MEL-2 melanoma = system: SK-MEL-2 melanoma
OVCAR-5 ovarian = system: OVCAR-5 ovarian
EKVX NSCLC = system: EKVX NSCLC
TK-10 renal = system: TK-10 renal
HOP-62 NSCLC = system: HOP-62 NSCLC
MDA-N = system: MDA-N
RXF 393 renal = system: RXF 393 renal
CCRF-CEM leukemia = system: CCRF-CEM leukemia
T-47D breast = system: T-47D breast
MCF7 breast = system: MCF7 breast
IGROV1 ovarian = system: IGROV1 ovarian
BT-549 breast = system: BT-549 breast
CAKI-1 renal = system: CAKI-1 renal
OVCAR-3 ovarian = system: OVCAR-3 ovarian
DU-145 prostate = system: DU-145 prostate
LOX IMVI melanoma = system: LOX IMVI melanoma
ACHN renal = system: ACHN renal
SF-268 CNS = system: SF-268 CNS
SK-OV-3 ovarian = system: SK-OV-3 ovarian
HL-60(TB) leukemia = system: HL-60(TB) leukemia
NCI-H460 lung = system: NCI-H460 lung
MALME-3M melanoma = system: MALME-3M melanoma
SK-MEL-5 melanoma = system: SK-MEL-5 melanoma
HS 578T breast = system: HS 578T breast
M14 melanoma = system: M14 melanoma
OVCAR-8 ovarian = system: OVCAR-8 ovarian
NCI-H522 lung = system: NCI-H522 lung
SNB-19 CNS = system: SNB-19 CNS
NCI-H23 lung = system: NCI-H23 lung
SW-620 colon = system: SW-620 colon
HCT-15 colon = system: HCT-15 colon
NCI/ADR-RES ovarian = system: NCI/ADR-RES ovarian
MOLT-4 leukemia = system: MOLT-4 leukemia
SN12C renal = system: SN12C renal
SF-539 CNS = system: SF-539 CNS
SNB-75 CNS = system: SNB-75 CNS
A498 renal = system: A498 renal
HT29 colon = system: HT29 colon
HOP-92 NSCLC = system: HOP-92 NSCLC
K-562 leukemia = system: K-562 leukemia
UACC-62 melanoma = system: UACC-62 melanoma
U251 CNS = system: U251 CNS
SR leukemia = system: SR leukemia
OVCAR-4 ovarian = system: OVCAR-4 ovarian
KM12 colon = system: KM12 colon
MDA-MB-435 = system: MDA-MB-435
SF-295 CNS = system: SF-295 CNS

For `COc1cc2cc(C(=O)N3CC(COS(C)(=O)=O)c4c3cc(N)c3ccccc43)[nH]c2c(OC)c1OC` (stereo unspecified), the TGI (COLO 205 colon) was > 100 µM, the TGI (SK-MEL-28 melanoma) was > 100 µM and the TGI (MDA-MB-231 breast) was < 0.01 µM. For the same compound, the TGI (UACC-257 melanoma) was > 100 µM, the TGI (UO-31 renal) was > 100 µM and the TGI (PC-3 prostate) was 30.5 µM. For the same compound, the TGI (786-0 renal) was > 100 µM, the TGI (RPMI-8226 leukemia) was > 100 µM and the TGI (A549 NSCLC) was > 100 µM. The TGI (HCC-2998 colon) was < 0.01 µM, the TGI (HCT-116 colon) was > 100 µM and the TGI (NCI-H226 lung) was 0.228 µM. For the same compound, the TGI (SK-MEL-2 melanoma) was > 100 µM, the TGI (OVCAR-5 ovarian) was > 100 µM and the TGI (EKVX NSCLC) was < 0.01 µM. The TGI (TK-10 renal) was < 0.01 µM, the TGI (HOP-62 NSCLC) was > 100 µM and the TGI (MDA-N) was > 100 µM. The TGI (RXF 393 renal) was 0.0377 µM, the TGI (CCRF-CEM leukemia) was > 100 µM and the TGI (T-47D breast) was > 100 µM. For the same compound, the TGI (MCF7 breast) was > 100 µM, the TGI (IGROV1 ovarian) was > 100 µM and the TGI (BT-549 breast) was 0.25 µM. The TGI (CAKI-1 renal) was 0.0928 µM, the TGI (OVCAR-3 ovarian) was > 100 µM and the TGI (DU-145 prostate) was < 0.01 µM. For the same compound, the TGI (LOX IMVI melanoma) was > 100 µM, the TGI (ACHN renal) was < 0.01 µM and the TGI (SF-268 CNS) was > 100 µM. The TGI (SK-OV-3 ovarian) was 1.28 µM, the TGI (HL-60(TB) leukemia) was > 100 µM and the TGI (NCI-H460 lung) was > 100 µM.
In the case of `COC(=O)C1(F)C(=O)NC(=O)NC1O` (stereo unspecified), the TGI (COLO 205 colon) is reported as > 100 µM, the TGI (MALME-3M melanoma) is reported as > 100 µM and the TGI (SK-MEL-28 melanoma) is reported as > 100 µM. For the same compound, the TGI (MDA-MB-231 breast) was > 100 µM, the TGI (UACC-257 melanoma) was > 100 µM and the TGI (UO-31 renal) was > 100 µM. The TGI (SK-MEL-5 melanoma) was > 100 µM, the TGI (PC-3 prostate) was > 100 µM and the TGI (786-0 renal) was > 100 µM. For the same compound, the TGI (HS 578T breast) was > 100 µM, the TGI (RPMI-8226 leukemia) was > 100 µM and the TGI (M14 melanoma) was > 100 µM. For the same compound, the TGI (OVCAR-8 ovarian) was > 100 µM, the TGI (NCI-H522 lung) was > 100 µM and the TGI (SNB-19 CNS) was > 100 µM. The TGI (A549 NSCLC) was > 100 µM, the TGI (HCC-2998 colon) was > 100 µM and the TGI (HCT-116 colon) was > 100 µM. The TGI (NCI-H226 lung) was > 100 µM, the TGI (NCI-H23 lung) was > 100 µM and the TGI (SK-MEL-2 melanoma) was > 100 µM. For the same compound, the TGI (SW-620 colon) was > 100 µM, the TGI (OVCAR-5 ovarian) was > 100 µM and the TGI (HCT-15 colon) was > 100 µM. The TGI (NCI/ADR-RES ovarian) was > 100 µM, the TGI (MOLT-4 leukemia) was > 100 µM and the TGI (EKVX NSCLC) was > 100 µM. For the same compound, the TGI (SN12C renal) was > 100 µM, the TGI (SF-539 CNS) was > 100 µM and the TGI (SNB-75 CNS) was > 100 µM. The TGI (TK-10 renal) was > 100 µM, the TGI (HOP-62 NSCLC) was > 100 µM and the TGI (A498 renal) was > 100 µM. The TGI (MDA-N) was > 100 µM, the TGI (RXF 393 renal) was > 100 µM and the TGI (HT29 colon) was > 100 µM. For the same compound, the TGI (HOP-92 NSCLC) was > 100 µM, the TGI (K-562 leukemia) was > 100 µM and the TGI (CCRF-CEM leukemia) was > 100 µM. The TGI (UACC-62 melanoma) was > 100 µM, the TGI (U251 CNS) was > 100 µM and the TGI (SR leukemia) was > 100 µM. For the same compound, the TGI (OVCAR-4 ovarian) was > 100 µM, the TGI (T-47D breast) was > 100 µM and the TGI (MCF7 breast) was > 100 µM. For the same compound, the TGI (IGROV1 ovarian) was > 100 µM, the TGI (KM12 colon) was > 100 µM and the TGI (CAKI-1 renal) was > 100 µM. For the same compound, the TGI (MDA-MB-435) was > 100 µM, the TGI (OVCAR-3 ovarian) was > 100 µM and the TGI (DU-145 prostate) was > 100 µM. The TGI (LOX IMVI melanoma) was > 100 µM, the TGI (SF-295 CNS) was > 100 µM and the TGI (ACHN renal) was > 100 µM. The TGI (SF-268 CNS) was > 100 µM, the TGI (SK-OV-3 ovarian) was > 100 µM and the TGI (HL-60(TB) leukemia) was > 100 µM. For the same compound, the TGI (NCI-H460 lung) was > 100 µM.
